Experimental findings from the OPERA property sets (Mansouri et al. 2018) are described below.

Usually logP stands for the decadic logarithm of the partition coefficient of the neutral form, usually between octanol and water.

Take `O=C1Nc2ccc([N+](=O)[O-])cc2C1=O`: the logP was determined as 0.47.
`COc1ccc(N)c(C)c1` came in with a logP of 1.23.
Consider `Nc1ccc(Cl)cc1[N+](=O)[O-]`, for which the logP amounted to 2.72.
On to `Cc1ccc(O)c(N)c1`, for which the logP came to 1.16.
`Nc1cccc2c1Cc1ccccc1-2` gave a logP of 3.18.
For `Nc1cc2ccccc2c2ccccc12` the value was 3.56; for `Nc1ccc2ccc3cccc4ccc1c2c34`, 4.31.
`Nc1ccc(Oc2ccccc2)cc1` had a logP of 2.96.
In turn, `O=[N+]([O-])c1cccc2cccc([N+](=O)[O-])c12` registered a logP of 2.52.
As to `Cc1ccc2cccc([N+](=O)[O-])c2n1`, the lipophilicity (logP) stood at 1.99.
To `O=[N+]([O-])c1cc([N+](=O)[O-])c2ccccc2c1` belongs 2.83; to `Nc1ccccc1-c1ccccc1N`, 1.34.
For `O=[N+]([O-])c1cccc2c([N+](=O)[O-])cccc12`, the logP stood at 2.58.
`Nc1ccc2c(c1)Cc1ccccc1-2` gave a logP of 3.14.
The compound `Nc1cccc(C(F)(F)F)c1` displayed a log partition coefficient (logP) of 2.29.
For `O=[N+]([O-])c1ccc2ccccc2c1` the value was 3.24; for `Nc1cccc2cc3ccccc3cc12`, 3.69; for `Cc1ccc(N)c(N)c1`, 0.66.
`Nc1ccc2c3c(cccc13)-c1ccccc1-2` gave a log partition coefficient (logP) of 4.2.
For `Nc1cc(Cl)ccc1O` the value was 1.81; for `Cc1ccc(N)cc1N`, 0.14.
To `COc1cc(-c2ccc(N)c(OC)c2)ccc1N` belongs 1.81; to `Cc1ccc(C)c(N)c1`, 1.83; to `O=[N+]([O-])c1ccc2c3c(cccc13)CC2`, 3.85.
